Reference: patent US20070003542A1, “Methods for treating diseases or conditions with peptide constructs” (priority 2002, published 2007)
Where “and” joins values, the source holds several entries; their conditions need not be identical. Identical values can stand only once.

Assays:
[1] = test system: Plasmodium yoelii sporozoites; assay: malaria protection assay, sporozoite challenge of immunized mice; format: in vivo; conditions: for Protection: 25 μg 2 times at 3 week intervals in TiterMax, 100 sporozoites
Protocol: In particular, mice were immunized twice at three week intervals with 25 μg of the subunits (W or G) used to make the L.E.A.P.S.™ construct (GW), and were challenged with 200 plasmodium yoelii sporozoites 2 weeks after the second immunization. Protective efficacy was evaluated by thin blood smears every other day starting 4 days after the challenge. Mice were considered protected if no blood stage parasites were detectable by 14 days after challenge.
(§1) Next using another antigen with B and T cell activity two inbred strains of mice, (A/J and Balb/c) were immunized twice at three week intervals with the L.E.A.P.S.™ constructs (J-GF/SF or der-SF/GF) or with the subunits (SF/GF, J and derG) used to make heteroconjugated peptides, and were challenged with 100 Plasmodium yoelii sporozoites 2 weeks after the second immunization and protection efficacy evaluated as before. Four days before challenge, serum was collected from individual animals, pooled and analyzed immediately for antibody to SF/GF peptide sera collected from immunized and protected mice 15 days post challenge were pooled and used for IFN-γ determination by ELISA procedures.
Groups of 10 mice were pre-treated 2 times at 3 week intervals with 25 μg of derG in TiterMax™ adjuvant and challenged with 100 Plasmodium yoelii sporozoites. Protective efficacy was evaluated as described above.

SF/GF peptide = assay: serum antibody ELISA to SF/GF peptide; format: in vivo, mice; parameters: scale not given here; conditions: serum pool four days before challenge
From the text: as §1

B16 melanoma = assay: allogeneic murine B16 melanoma protection model; format: in vivo, mice; conditions: in combination with allogeneic K1735 cells; B16 challenge; two experiments
Protocol: In particular, C57/b16 (H2^b) mice are vaccinated with the allogeneic melanoma K1735 (H2^k) at least twice on weekly intervals and then challenged with syngeneic B16 (H2^b) tumors. […] This is clear evidence of cross-priming and the existence of shared antigens.
Peptide constructs were prepared using as T cell binding ligand, either derG (SEQ ID NO. 7), Peptide G (SEQ ID NO. 5). The peptides are synthesized using the FMOC procedure and a double coupling protocol for the first 8 residues. Usually the peptide is prepared with the carboxyl terminus as an amide form. All of the peptides are purified using preparative HPLC, and analyzed by an analytical HPLC, amino acid analysis and mass spectrophotometer. The peptides are greater than 95%, usually greater than 98%, pure by HPLC criteria. The dry peptides are stored in vials with desiccant at −8° C. • 1) Eight groups of seven mice were injected with 200 μl of the vaccine as shown in FIG. 1. • 2) This was repeated after 7 days. • 3) A further 7 days later, mice were challenged with 200 μl saline containing 5×10^4 live B16 on the contralateral side to vaccination. • 4) Mice were sacrificed when tumor size exceeded 15 mm in either axis.
In order more precisely model the use of clinical allogeneic vaccines, a frozen vaccine was used in the mouse model wherein K-1735 cells were thawed just prior to use. […]

IFN-γ = assay: serum IFN-γ determination by ELISA; format: in vivo; conditions: A/J mice, serum pool 15 days post challenge
From the text: as §1

HSV-1 = assay: scarification zosteriform spread model of HSV infection; format: in vivo; conditions: A/J mice
Protocol: Groups of 4- to 6-wk old female A/J mice were subcutaneously inoculated once with 25 μg of the derG peptide emulsified in ISA51 adjuvant at a 1:1 ratio before challenge unless otherwise specified. Untreated mice and mice treated with adjuvant served as additional controls. The mice were challenged as specified in methods well known to those of ordinary skill in the art and as exemplified by Goel et al. (“The Ability of an HSV Strain to Initiate Zosteriform Spread Correlates with its Neuroinvasive Disease Potential”, Arch Virol 147:763-773 (2002)) and Goel et al., (“A Modification Of The Epidermal Scarification Model Of Herpes Simplex Virus Infection To Achieve A Reproducible And Uniform Progression Of Disease”, J Virol Meth 106; 153-8 (2002)).
In particular, hair is removed by shaving and then Nair® is applied. Twenty-fours later the depilated back of a mouse is scratched or abraded to expose the susceptible epidermal layer and virus rubbed in. To provide more detail, 10 μl of a virus suspension containing 6×10^4 plaque forming units was pipetted onto a 0.5 cm square of skin on mouse dorsal surface, which was previously abraded using sand paper glued on a pencil eraser. In untreated animals, the primary lesion developed at the inoculation site within 3 days and spread to the associated root, followed by anterograde transport and formation of secondary lesions at sites along the dermatome of the nerves within 5 days. In severe cases, animals died within 8 days post viral challenge. Disease progression and survival were monitored for at least 10 days. […] The progression and the severity of the lesions was scored from 0 to 7 (death). This model allows for discrimination of the disease progression (local site, neuronal spread, extent of lesion at the dermatome, death) at which the immune system blocks viral progression. In some experiments modifications in the timing, route of administration and mouse strain were evaluated for efficacy of CEL-1000.

[2] = A/J mice, dose 5 μg, 100 sporozoites (Table 5)
[3] = A/J mice, dose 25 μg, 100 sporozoites (Table 5)
[4] = Balb/c mice, dose 25 μg, 100 sporozoites (Table 5)
[5] = A/J mice, dose 1.25 μg (Table 6)
[6] = A/J mice, dose 2.5 μg (Table 6)

| Sequence | Protection (%) [1, 2] [%] | Protection (%) ([1]; A/J mice, dose 10 μg (Table 6)) | Protection (%) [1, 3] [%] | Protection (%) [1, 4] [%] | Antibody EL1SA A490* (SF/GF peptide; A/J mice, dose 5 μg) | Antibody EL1SA A490* (SF/GF peptide; A/J mice, dose 25 μg) | Antibody EL1SA A490* (SF/GF peptide; Balb/c mice, dose 25 μg) | Protection (%) ([1]; A/J mice, dose 5 μg (Table 6)) | other results |
| --- | --- | --- | --- | --- | --- | --- | --- | --- | --- |
| DLLKNGERIEKVEGGG SFPMNEESPLGFSPEEMEAVASKFR [J-GF/SF] | 10 | 56 | 100 | 0 | 1,103 | 6,121 | 11,454 |  |  |
| DLLKNGERIEKVEGGG [J, short fragment from β2-microglobulin (a.a. 38-50)] | 10 | 10 | 10 | 0 | 1 | 2 | 2 |  |  |
| SFPMNEESPLGFSPEEMEAVASKFR [GF/SF] | 30 | 50 | 100 |  | 8,443 | 19,970 |  | 10 |  |
| DGQEEKAGVVSTGLIGGGSFPMNEESPLGFSPEEMEAVASKFR [derG-GF/SF] | 80 |  | 100 | 0 | 1,933 | 10,694 | 17,019 | 10 |  |
| DGQEEKAGVVSTGLIGGG [derG, modified fragment from MHC II β-chain (a.a. 135-149)] | 100 |  | 100 | 0 | 2 | 2 | 4 | 100 | Protection (B16 melanoma): 30% and 40%; Protection ([1]; A/J mice): 80; Protection (%) [1, 5]: 60%; Protection Protected/Tested [1, 5]: 6/10; Protection (%) [1, 6]: 80%; Protection Protected/Tested [1, 6]: 9/10; Protection Protected/Tested ([1]; A/J mice, dose 5 μg (Table 6)): 10/10; Protection Protected/Tested [1, 2]: 10/10; Protection Protected/Tested [1, 3]: 10/10; Protection ([1]; BALB/c mice): 0; Protection Protected/Tested [1, 4]: 0/10; Protection ([1]; C3H mice): 40; Protection ([1]; CAF1 hybrid mice): 40; IFN-γ serum (IFN-γ; dose 5 μg): 40,000 pg/mL; IFN-γ serum (IFN-γ; dose 25 μg): 18,000 pg/mL; protection from lethal HSV-1 challenge (HSV-1): protects A/J mice from lethal HSV-1 challenge; Protection (HSV-1; intramuscularly 2 weeks prior to challenge, without adjuvant, in aqueous solution): 100%; onset of symptoms, morbidity and mortality, zosteriform spread (HSV-1; single dose of 25 μg, timing of administration (FIG. 3)): delay in onset of symptoms |
